The values that follow come from patent publication US12649907B2, “Alternate detergents for viral inactivation” (AMGEN INC., priority 2019, dated 2026).

“And” between values parts separate entries of the source, which are not always exact repeats. Identical values can stand only once. Bounds are passed on as bounds.

Data set [1] has as its system xMuLV. Nature of the data set: Temperature-dependent study, TCID50 LRV in host cell culture fluid matrices. The class given is cell-based, xenotropic murine leukemia virus. The following applies: for Viral inactivation in the presence of therapeutic modalities: between 30 seconds and 30 minutes, temperatures as low as 5° C. and 15° C.; for Inactivation at 30 minutes at both 5° C. and 15° C.: mAb, BiTE ®, fusion protein matrices.

Data set [2] is described as follows: Turbidity of detergent spiked HCCF. The class given is physicochemical. Conditions: HCCF spiked at five times CMC, room temperature 5 days and 2-8° C. 7 days. Here is the method:
Determination of turbidity was used to measure the stability of detergent spiked samples. Increased turbidity of the sample would reflect a precipitation of the protein molecule. 100 mL of harvested cell culture fluid (HCCF) collected from cultures of each molecule were subjected to four conditions: HCCF containing no detergent (control), APO128, APO129 and Triton X-100. The detergents were spiked at five times the detergent's critical micelle concentration (CMC) values, Triton-X: […] Two sample sets were generated for each molecule; one set was kept at room temperature for 5 days. The second set was kept at 2-8° C. for 7 days. The turbidity of each sample was measured using a turbidimeter (Hach Turbidime[…] 46500-00, Loveland, CO) on days 0, 1, 2, 5, and 7.

Data set [3] concerns xMuLV. Nature of the data set: Concentration study, lowest concentration to inactivate virus. The format is cell-based, xenotropic murine leukemia virus. Conditions: 15° C., 30-minute incubation.
In the next data set the test system is MMV. Described as above. The class given is cell-based, mouse minute virus.
In data set [4] the test system is xMuLV. Briefly: Kinetic study of detergents, TCID50 LRV in host cell culture fluid matrices. The format is cell-based, xenotropic murine leukemia virus.
A further data set concerns PRV. The format is cell-based, pseudorabies herpes virus.
For data set [5] the following is noted: as indicated by the Hampton Kit; cited from earlier work.
Data set [6] deals with xMuLV. The class given is cell-based, xenotropic murine leukemia virus. The following applies: initial screen, 10× CMC or 10% w/v, 30 minutes, 15° C., 5% virus spike, PG4 cells.

On to “polyoxyethylene octyl phenol ether [Triton X-100, reference compound]”, for which the LRV fusion protein with xMuLV [1] (Triton X-100 control, 7° C., 800-sample large volume plate (1 LRV increase), Run 1 and Run 2) was 5.03 ± 0.58 and 5.04 ± 0.57. Also, the “Precipitation of protein modalities (turbidity)” value (“Precipitation” below) in data set [2] is reported as “none of the detergents tested caused precipitation”.
Regarding “Polyoxyethylene(9)dodecyl ether [Anapoe C12E9]”, the “LRV BiTE ®” value was at least 3.84 ± 0.33 in the data set on xMuLV [1] (5° C., 30 minutes, 5× CMC) and at least 3.91 ± 0.43 with xMuLV [1] (15° C., 30 minutes, 5× CMC). For the same molecule, the LRV fusion protein in the data set with xMuLV [1] (5° C., 30 minutes, 5× CMC) is recorded as at least 4.19 ± 0.25; in the data set with xMuLV [1] (15° C., 30 minutes, 5× CMC), at least 4.32 ± 0.36. Further, the “LRV mAb” value in the data set on xMuLV [1] (5° C., 30 minutes, 5× CMC) is at least 3.91 ± 0.30; with xMuLV [1] (15° C., 30 minutes, 5× CMC), at least 4.23 ± 0.38. Moreover, in the data set on xMuLV [1], the “Viral inactivation in the presence of therapeutic modalities” value (“Viral inactivation in the presence” for short) is “complete viral inactivation”. Moreover, in the data set on xMuLV [1], the “Inactivation at 30 minutes at both 5° C. and 15° C.” value (shortened to “Inactivation at 30 minutes”) is “complete inactivation”. The “Cytopathic effects (CPE) at 2.5×CMC” value in the data set on xMuLV [3], in the data set on MMV and in the data set on PRV was “showed cytopathic effects (CPE)” each time. Further, the “Precipitation” value in data set [2] was “none of the detergents tested caused precipitation”. In addition, the “LRV 30 s” value is listed as 2.61 ± 0.68 in the data set on xMuLV [4] (BiTE ® #1, 15° C.); 2.56 ± 0.60 in the data set with xMuLV [4] (fusion protein #1, 15° C.); at least 3.23 ± 0.00 in the data set on xMuLV [4] (mAb #1, 15° C.). Besides, the “LRV 10 min” value in the data set on xMuLV [4] (BiTE ® #1, 15° C.) is listed as at least 2.91 ± 0.43; in the data set on xMuLV [4] (fusion protein #1, 15° C.), at least 3.32 ± 0.36; in the data set on xMuLV [4] (mAb #1, 15° C.), at least 3.23 ± 0.00. In addition, the “LRV 30 min” value is listed as at least 2.91 ± 0.43 in the data set on xMuLV [4] (BiTE ® #1, 15° C.); at least 3.32 ± 0.36 with xMuLV [4] (fusion protein #1, 15° C.); at least 3.23 ± 0.00 with xMuLV [4] (mAb #1, 15° C.). For the same molecule, the “Time to complete inactivation of xMuLV” value with xMuLV [4] (BiTE® #1) is at most 10 min; in the data set on xMuLV [4] (fusion protein #1), at most 10 min; in the data set on xMuLV [4] (mAb #1), 0.5 min. In the data set with xMuLV [4] (all three therapeutic modalities), the “Time to complete clearance of xMuLV” value is at most 10 min. In addition, in data set [5], the CMC was 0.05 mM. The “Viral inactivation towards xMuLV (CPE)” value with xMuLV [6] is listed as “robustly inactivate the virus”.
Regarding `CCCCCCCCCCCCOCCOCCOCCOCCOCCOCCOCCOCCO` [Anapoe C12E8, 3,6,9,12,15,18,21,24-oxtaoxahexatriacontan-1-ol], in the data set with xMuLV [1] (5° C., 30 minutes, 5× CMC), the “LRV BiTE ®” value is reported as at least 4.03 ± 0.18, the LRV fusion protein is at least 4.23 ± 0.33 and the “LRV mAb” value is given as at least 4.41 ± 0.37. Also, in the data set on xMuLV [1] (15° C., 30 minutes, 5× CMC), the “LRV BiTE ®” value is given as at least 4.32 ± 0.35, the LRV fusion protein is on record as at least 4.99 ± 0.42 and the “LRV mAb” value is at least 3.28 ± 0.34. In the data set with xMuLV [1], the “Viral inactivation in the presence” value is “complete viral inactivation”; the “Inactivation at 30 minutes” value is on record as “complete inactivation”. Further, in the data set with xMuLV [3], the “Cytopathic effects (CPE) at 2.5×CMC” value is “showed cytopathic effects (CPE)”. Also, the “Cytopathic effects (CPE) at 2.5×CMC” value in the data set on MMV is on record as “showed cytopathic effects (CPE)”. Also, in data set [2], the “Precipitation” value was “none of the detergents tested caused precipitation”. In the data set with xMuLV [4] (BiTE ® #1, 15° C.), the “LRV 30 s” value is recorded as at least 3.32 ± 0.35, the “LRV 10 min” value was at least 3.32 ± 0.35 and the “LRV 30 min” value is recorded as at least 3.32 ± 0.35. For the same molecule, in the data set with xMuLV [4] (fusion protein #1, 15° C.), the “LRV 30 s” value is at least 3.99 ± 0.42, the “LRV 10 min” value is reported as at least 3.99 ± 0.42 and the “LRV 30 min” value is reported as at least 3.99 ± 0.42. In the data set with xMuLV [4] (mAb #1, 15° C.), the “LRV 30 s” value is reported as at least 3.28 ± 0.34, the “LRV 10 min” value is listed as at least 3.28 ± 0.34 and the “LRV 30 min” value is listed as at least 3.28 ± 0.34. Moreover, in the data set with PRV, the “Cytopathic effects (CPE) at 2.5×CMC” value is listed as “showed cytopathic effects (CPE)”. Besides, the CMC in data set [5] is on record as 0.11 mM. Besides, the “Viral inactivation towards xMuLV (CPE)” value in the data set with xMuLV [6] is reported as “robustly inactivate the virus”.
For `CCCCCCCCCCOP(=O)([O-])OCC[N+](C)(C)C` [Fos-Choline ®-10, n-decylphosphocholine], the “LRV BiTE ®” value with xMuLV [1] (5° C., 30 minutes, 5× CMC) amounted to 2.09 ± 0.31; with xMuLV [1] (15° C., 30 minutes, 5× CMC) it was 3.92 ± 0.67. Further, the LRV fusion protein in the data set with xMuLV [1] (5° C., 30 minutes, 5× CMC) is reported as 1.76 ± 0.41; in the data set on xMuLV [1] (15° C., 30 minutes, 5× CMC), 3.51 ± 0.43. For the same molecule, the “LRV mAb” value in the data set on xMuLV [1] (5° C., 30 minutes, 5× CMC) is listed as 2.54 ± 0.34; in the data set with xMuLV [1] (15° C., 30 minutes, 5× CMC), 3.97 ± 0.90. Further, in the data set on xMuLV [1] (in product matrices), the “Inactivation towards xMuLV at any temperature tested” value was “did not yield significant inactivation”. The “average LRV” value in the data set on xMuLV [1] (process temperature of 15° C., average over modalities) turned out to be 3.8. Moreover, the “Cytopathic effects (CPE) at 2.5×CMC” value in the data set on xMuLV [3], with MMV and in the data set with PRV was “showed cytopathic effects (CPE)” each time. Also, the “Clearance of xMuLV within 30 minutes” value with xMuLV [4] (15° C.) was “did not lead to robust clearance”. Also, the “LRV 30 s” value in the data set with xMuLV [4] (BiTE ® #1, 15° C.) was found to be 0.69 ± 0.44; with xMuLV [4] (fusion protein #1, 15° C.), 0.82 ± 0.57; in the data set with xMuLV [4] (mAb #1, 15° C.), 0.69 ± 0.31. Moreover, the “LRV 10 min” value in the data set with xMuLV [4] (BiTE ® #1, 15° C.) was 1.57 ± 0.47; in the data set with xMuLV [4] (fusion protein #1, 15° C.), 1.82 ± 0.51; in the data set with xMuLV [4] (mAb #1, 15° C.), 1.61 ± 0.56. Moreover, the “LRV 30 min” value was determined as 3.92 ± 0.67 in the data set on xMuLV [4] (BiTE ® #1, 15° C.); 3.51 ± 0.43 in the data set with xMuLV [4] (fusion protein #1, 15° C.); 3.97 ± 0.90 with xMuLV [4] (mAb #1, 15° C.). Also, the CMC in data set [5] is given as 11 mM.
Take `CCCCCCCS[C@@H]1O[C@H](CO)[C@@H](O)[C@H](O)[C@H]1O` [N-heptyl-β-D-thioglucopyranoside, Heptyl-β-D-1-thioglucopyranoside]: the “LRV BiTE ®” value with xMuLV [1] (5° C., 30 minutes, 5× CMC) is given as at least 4.23 ± 0.33; in the data set with xMuLV [1] (15° C., 30 minutes, 5× CMC) it was at least 4.03 ± 0.18. Besides, the LRV fusion protein is reported as at least 4.07 ± 0.30 in the data set with xMuLV [1] (5° C., 30 minutes, 5× CMC) and at least 4.16 ± 0.42 in the data set with xMuLV [1] (15° C., 30 minutes, 5× CMC). Also, the “LRV mAb” value is given as at least 4.09 ± 0.25 in the data set on xMuLV [1] (5° C., 30 minutes, 5× CMC) and at least 4.22 ± 0.41 with xMuLV [1] (15° C., 30 minutes, 5× CMC). Besides, the “Viral inactivation in the presence” value with xMuLV [1] was “complete viral inactivation”. Further, the “Inactivation at 30 minutes” value with xMuLV [1] is reported as “complete inactivation”. Also, the “Cytopathic effects (CPE) at 2.5×CMC” value in the data set on xMuLV [3], with MMV and in the data set with PRV was “showed cytopathic effects (CPE)” each time. Also, the “LRV 30 s” value is given as at least 3.03 ± 0.18 in the data set on xMuLV [4] (BiTE ® #1, 15° C.); at least 3.16 ± 0.42 in the data set with xMuLV [4] (fusion protein #1, 15° C.); at least 3.22 ± 0.41 in the data set on xMuLV [4] (mAb #1, 15° C.). Moreover, the “LRV 10 min” value is given as at least 3.03 ± 0.18 in the data set on xMuLV [4] (BiTE ® #1, 15° C.); at least 3.16 ± 0.42 in the data set on xMuLV [4] (fusion protein #1, 15° C.); at least 3.22 ± 0.41 with xMuLV [4] (mAb #1, 15° C.). The “LRV 30 min” value in the data set with xMuLV [4] (BiTE ® #1, 15° C.) was at least 3.03 ± 0.18; in the data set on xMuLV [4] (fusion protein #1, 15° C.) it was at least 3.16 ± 0.42; with xMuLV [4] (mAb #1, 15° C.), at least 3.22 ± 0.41. Moreover, in data set [5], the CMC is recorded as 29 mM.
